Measurements taken from PMC12136037, “Type II kinase inhibitors that target Parkinson’s disease–associated LRRK2” (Science Advances, 2025).

Key:
Assay in all cases: DSF 100 kinase selectivity screen;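 also: compound tested at 20 µM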
Assay type in all cases: binding
[1] = target: T1, ~100 representative kinases (Homo sapiens, UniProt O14733); details: protein MAP2K7; average of three replicates
T1 construct: Recombinant protein kinase domains with a concentration of 2 μM
T1 sequence (O14733 1-419): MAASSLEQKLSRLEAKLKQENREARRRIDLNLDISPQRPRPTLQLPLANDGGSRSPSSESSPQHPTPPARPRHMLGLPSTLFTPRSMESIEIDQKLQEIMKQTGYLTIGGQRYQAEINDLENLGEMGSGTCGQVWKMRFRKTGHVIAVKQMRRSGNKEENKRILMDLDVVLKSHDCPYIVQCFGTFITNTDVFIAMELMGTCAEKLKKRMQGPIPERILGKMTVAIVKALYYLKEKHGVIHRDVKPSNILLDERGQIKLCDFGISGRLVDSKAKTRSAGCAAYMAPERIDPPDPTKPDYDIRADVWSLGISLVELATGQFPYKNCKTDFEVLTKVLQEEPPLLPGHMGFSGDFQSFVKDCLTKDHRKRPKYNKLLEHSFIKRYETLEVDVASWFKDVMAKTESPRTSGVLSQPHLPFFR
In short: (§1)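 Each kinase domain, at 2 μM, is mixed with 20 μM test compound and SYPRO Orange in Hepes (20 mM, pH 7.5) with 500 mM NaCl. Temperature is then raised at 3°C/min and fluorescence-monitored unfolding yields the melting temperature change, ΔTm in degrees Celsius.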

[2] = target: T2, ~100 representative kinases (Homo sapiens, UniProt P15056); details: Protein BRAF; average of three replicates
T2 construct: Recombinant protein kinase domains with a concentration of 2 μM
In short: as §1

[3] = target: T3, ~100 representative kinases (Homo sapiens, UniProt P48730); details: Protein CSNK1D; average of three replicates
T3 construct: Recombinant protein kinase domains with a concentration of 2 μM
In short: as §1

[4] = target: T4, ~100 representative kinases (Homo sapiens, UniProt P49759); details: Protein CLK1; average of three replicates
T4 construct: Recombinant protein kinase domains with a concentration of 2 μM
In short: as §1

[5] = target: T5, ~100 representative kinases (Homo sapiens, UniProt P53779); details: protein MAPK10; average of three replicates
T5 construct: Recombinant protein kinase domains with a concentration of 2 μM
In short: as §1

[6] = target: T6, ~100 representative kinases (Homo sapiens, UniProt P68400); details: Protein CK2A1; average of three replicates
T6 construct: Recombinant protein kinase domains with a concentration of 2 μM
In short: as §1

[7] = target: T7, ~100 representative kinases (Homo sapiens, UniProt Q8IU85); details: Protein CAMK1D; average of three replicates
T7 construct: Recombinant protein kinase domains with a concentration of 2 μM
In short: as §1

[8] = target: T8, ~100 representative kinases (Homo sapiens, UniProt Q99683); details: protein MAP3K5; average of three replicates
T8 construct: Recombinant protein kinase domains with a concentration of 2 μM
T8 sequence (Q99683 1-1374): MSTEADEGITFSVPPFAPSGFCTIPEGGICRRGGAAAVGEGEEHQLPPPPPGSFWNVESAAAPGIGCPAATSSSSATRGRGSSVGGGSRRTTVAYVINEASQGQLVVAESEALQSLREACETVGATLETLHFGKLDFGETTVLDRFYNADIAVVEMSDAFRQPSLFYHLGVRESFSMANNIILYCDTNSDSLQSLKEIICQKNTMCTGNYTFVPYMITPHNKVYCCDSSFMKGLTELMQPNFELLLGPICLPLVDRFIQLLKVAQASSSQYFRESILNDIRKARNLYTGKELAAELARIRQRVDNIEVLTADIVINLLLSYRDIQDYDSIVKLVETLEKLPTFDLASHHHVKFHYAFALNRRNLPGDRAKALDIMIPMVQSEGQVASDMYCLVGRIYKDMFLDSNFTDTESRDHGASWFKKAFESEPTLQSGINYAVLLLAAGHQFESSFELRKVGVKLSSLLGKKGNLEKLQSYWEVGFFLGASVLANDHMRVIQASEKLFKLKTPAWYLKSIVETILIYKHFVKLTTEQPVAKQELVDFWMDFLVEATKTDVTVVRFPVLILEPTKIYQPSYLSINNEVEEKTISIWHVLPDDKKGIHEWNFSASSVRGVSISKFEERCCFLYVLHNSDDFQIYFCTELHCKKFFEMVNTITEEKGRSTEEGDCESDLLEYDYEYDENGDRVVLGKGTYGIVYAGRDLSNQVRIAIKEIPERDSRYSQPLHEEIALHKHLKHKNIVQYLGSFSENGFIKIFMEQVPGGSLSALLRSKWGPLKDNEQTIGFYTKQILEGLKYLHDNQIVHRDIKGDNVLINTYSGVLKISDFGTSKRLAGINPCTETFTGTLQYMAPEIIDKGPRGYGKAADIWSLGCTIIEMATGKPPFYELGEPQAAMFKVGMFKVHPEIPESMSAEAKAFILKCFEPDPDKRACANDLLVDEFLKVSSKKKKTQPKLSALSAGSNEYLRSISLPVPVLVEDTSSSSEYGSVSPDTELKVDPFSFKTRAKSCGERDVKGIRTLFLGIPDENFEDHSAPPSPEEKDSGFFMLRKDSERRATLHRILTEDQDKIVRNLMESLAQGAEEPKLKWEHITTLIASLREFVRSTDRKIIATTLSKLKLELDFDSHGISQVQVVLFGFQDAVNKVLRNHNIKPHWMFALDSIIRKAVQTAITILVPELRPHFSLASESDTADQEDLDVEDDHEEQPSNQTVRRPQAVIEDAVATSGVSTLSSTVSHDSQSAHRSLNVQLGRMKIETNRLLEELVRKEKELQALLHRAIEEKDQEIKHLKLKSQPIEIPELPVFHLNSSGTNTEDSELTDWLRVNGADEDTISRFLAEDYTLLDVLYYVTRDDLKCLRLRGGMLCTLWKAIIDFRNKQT
In short: as §1

[9] = target: T9, ~100 representative kinases (Homo sapiens, UniProt Q9UPE1); details: Protein SRPK3; DSF; average of three replicates
T9 construct: Recombinant protein kinase domains with a concentration of 2 μM
In short: as §1

T3 sequence (P48730 whole entry, the tested form may be a part): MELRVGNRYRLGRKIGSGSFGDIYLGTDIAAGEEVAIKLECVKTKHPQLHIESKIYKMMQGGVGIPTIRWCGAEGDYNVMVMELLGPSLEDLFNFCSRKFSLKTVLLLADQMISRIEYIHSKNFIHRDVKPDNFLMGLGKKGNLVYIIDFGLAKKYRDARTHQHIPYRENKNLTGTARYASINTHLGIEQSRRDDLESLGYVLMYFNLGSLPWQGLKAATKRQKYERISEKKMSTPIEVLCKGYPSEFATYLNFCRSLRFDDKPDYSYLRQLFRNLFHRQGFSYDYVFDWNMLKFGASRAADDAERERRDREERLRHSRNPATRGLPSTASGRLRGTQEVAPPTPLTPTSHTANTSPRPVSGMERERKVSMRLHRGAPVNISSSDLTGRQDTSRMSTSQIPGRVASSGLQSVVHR
T2 sequence (P15056 whole entry, the tested form may be a part): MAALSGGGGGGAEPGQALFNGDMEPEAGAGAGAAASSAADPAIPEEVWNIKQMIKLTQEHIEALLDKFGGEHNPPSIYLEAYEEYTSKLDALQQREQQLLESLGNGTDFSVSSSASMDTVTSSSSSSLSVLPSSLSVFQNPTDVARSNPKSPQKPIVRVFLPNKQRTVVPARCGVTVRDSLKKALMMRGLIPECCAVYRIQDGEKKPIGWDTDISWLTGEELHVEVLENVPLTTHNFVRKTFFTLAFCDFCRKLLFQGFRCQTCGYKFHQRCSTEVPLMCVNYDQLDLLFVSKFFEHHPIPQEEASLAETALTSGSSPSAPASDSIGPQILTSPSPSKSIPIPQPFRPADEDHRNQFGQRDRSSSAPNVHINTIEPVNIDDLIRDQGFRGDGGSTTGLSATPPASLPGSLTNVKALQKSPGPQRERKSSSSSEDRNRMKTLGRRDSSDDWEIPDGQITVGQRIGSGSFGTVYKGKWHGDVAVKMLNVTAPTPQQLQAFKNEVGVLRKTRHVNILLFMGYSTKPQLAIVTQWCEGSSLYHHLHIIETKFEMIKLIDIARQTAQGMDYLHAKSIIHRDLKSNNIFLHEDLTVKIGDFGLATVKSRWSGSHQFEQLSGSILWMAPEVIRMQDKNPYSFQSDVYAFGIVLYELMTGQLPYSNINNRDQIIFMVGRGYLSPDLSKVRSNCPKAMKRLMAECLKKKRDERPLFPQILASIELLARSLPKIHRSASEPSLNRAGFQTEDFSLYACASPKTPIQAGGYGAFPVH
T9 sequence (Q9UPE1 whole entry, the tested form may be a part): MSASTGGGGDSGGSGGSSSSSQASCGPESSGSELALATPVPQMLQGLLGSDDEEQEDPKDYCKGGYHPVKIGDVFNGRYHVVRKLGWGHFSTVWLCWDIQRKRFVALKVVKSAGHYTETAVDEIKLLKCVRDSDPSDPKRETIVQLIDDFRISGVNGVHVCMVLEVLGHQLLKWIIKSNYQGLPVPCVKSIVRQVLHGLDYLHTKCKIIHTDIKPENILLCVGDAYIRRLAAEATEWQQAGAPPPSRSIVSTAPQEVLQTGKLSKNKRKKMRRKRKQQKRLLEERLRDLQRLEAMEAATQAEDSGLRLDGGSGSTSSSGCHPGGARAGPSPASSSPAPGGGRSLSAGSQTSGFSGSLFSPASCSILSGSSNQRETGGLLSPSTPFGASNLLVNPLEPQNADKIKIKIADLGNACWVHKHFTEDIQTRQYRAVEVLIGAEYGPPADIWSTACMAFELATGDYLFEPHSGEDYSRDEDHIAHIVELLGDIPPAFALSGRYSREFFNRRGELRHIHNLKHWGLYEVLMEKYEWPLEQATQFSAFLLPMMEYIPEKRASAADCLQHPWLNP
T5 sequence (P53779 whole entry, the tested form may be a part): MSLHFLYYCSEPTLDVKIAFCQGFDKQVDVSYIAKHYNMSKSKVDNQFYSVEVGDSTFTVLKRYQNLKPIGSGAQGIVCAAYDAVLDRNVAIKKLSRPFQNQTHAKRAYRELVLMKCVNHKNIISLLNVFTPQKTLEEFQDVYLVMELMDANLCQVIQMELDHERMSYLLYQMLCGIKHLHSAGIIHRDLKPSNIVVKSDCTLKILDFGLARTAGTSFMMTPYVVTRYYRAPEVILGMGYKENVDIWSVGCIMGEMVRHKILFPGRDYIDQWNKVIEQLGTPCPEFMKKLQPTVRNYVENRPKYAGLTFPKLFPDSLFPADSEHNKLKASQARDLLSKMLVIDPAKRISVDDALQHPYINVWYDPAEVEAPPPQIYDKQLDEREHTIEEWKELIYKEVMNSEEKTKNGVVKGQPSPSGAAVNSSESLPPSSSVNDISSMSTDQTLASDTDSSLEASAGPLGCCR
T4 sequence (P49759 whole entry, the tested form may be a part): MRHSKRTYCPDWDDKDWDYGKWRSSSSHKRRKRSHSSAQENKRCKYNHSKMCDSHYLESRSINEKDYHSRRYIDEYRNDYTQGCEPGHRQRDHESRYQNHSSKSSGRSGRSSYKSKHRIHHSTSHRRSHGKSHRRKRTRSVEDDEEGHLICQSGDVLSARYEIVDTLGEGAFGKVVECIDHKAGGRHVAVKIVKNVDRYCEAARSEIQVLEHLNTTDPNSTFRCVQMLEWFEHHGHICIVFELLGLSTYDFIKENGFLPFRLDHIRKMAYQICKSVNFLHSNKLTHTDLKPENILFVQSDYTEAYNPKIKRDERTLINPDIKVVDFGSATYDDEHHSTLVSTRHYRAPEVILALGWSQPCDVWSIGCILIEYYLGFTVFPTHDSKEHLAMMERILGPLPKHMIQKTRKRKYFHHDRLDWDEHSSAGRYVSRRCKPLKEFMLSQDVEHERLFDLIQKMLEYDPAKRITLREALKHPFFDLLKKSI
T7 sequence (Q8IU85 whole entry, the tested form may be a part): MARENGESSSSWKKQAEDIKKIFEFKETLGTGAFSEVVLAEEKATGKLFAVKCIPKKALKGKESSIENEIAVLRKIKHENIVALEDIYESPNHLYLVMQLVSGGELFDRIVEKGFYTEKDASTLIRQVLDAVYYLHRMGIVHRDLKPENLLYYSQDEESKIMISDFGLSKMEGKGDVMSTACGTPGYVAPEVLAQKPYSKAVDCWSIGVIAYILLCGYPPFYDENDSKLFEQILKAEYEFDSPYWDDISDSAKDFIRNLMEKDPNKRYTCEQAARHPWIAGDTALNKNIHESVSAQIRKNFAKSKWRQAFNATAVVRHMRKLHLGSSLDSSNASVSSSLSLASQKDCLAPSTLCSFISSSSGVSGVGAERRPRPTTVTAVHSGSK
T6 sequence (P68400 whole entry, the tested form may be a part): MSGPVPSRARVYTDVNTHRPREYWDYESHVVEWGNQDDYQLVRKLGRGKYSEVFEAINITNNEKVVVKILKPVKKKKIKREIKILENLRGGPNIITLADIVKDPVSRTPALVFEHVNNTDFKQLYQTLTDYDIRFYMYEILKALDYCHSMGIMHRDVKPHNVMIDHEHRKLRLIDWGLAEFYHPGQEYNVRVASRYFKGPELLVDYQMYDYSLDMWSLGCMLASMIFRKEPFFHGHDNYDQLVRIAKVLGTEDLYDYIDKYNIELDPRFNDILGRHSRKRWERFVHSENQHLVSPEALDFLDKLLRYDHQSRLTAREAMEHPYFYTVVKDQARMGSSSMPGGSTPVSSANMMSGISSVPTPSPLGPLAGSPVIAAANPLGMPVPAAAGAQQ

dTm [1] | dTm [2] | dTm [3] | dTm [4] | dTm [5] | dTm [6] | dTm [7] | dTm [8] | dTm [9] | Compound
5.76 K | 8.03 K | 5.34 K | 9.53 K | 7.48 K | 1.35 K | -1.98 K | 4.59 K | 5.16 K | O=C(Nc1cccc(-c2c[nH]c3ncnc(N4CCOCC4)c23)c1)c1cccn(-c2ccc(F)cc2)c1=O [Compound 4]
3.77 K | 15.10 K | -2.04 K | 7.58 K | 1.37 K | -1.17 K | 3.02 K | 2.56 K | 4.39 K | CC(C)(C)c1cccc(NC(=O)C2(C(=O)Nc3cccc(-c4c[nH]c5ncnc(N6CCOCC6)c45)c3)CC2)c1 [Compound 22]

Compound | dTm [1] | dTm [2] | dTm [3] | dTm [4] | dTm [5] | dTm [6] | dTm [7] | dTm [8] | dTm [9]
CCSc1nc(NC)c2c(-c3cccc(NC(=O)Nc4cc(C(C)(C)C)nn4-c4ccc(C)cc4)c3)c[nH]c2n1 [Compound 32] | 0.27 K | 0.90 K | 0.85 K | 5.52 K | 3.75 K | 0.23 K | 0.45 K | 0.73 K | 1.35 K
